In US20070249988A1, “Electrotransport Delivery of Nesiritide” (ALZA CORPORATION, priority 2006, published 2007):

Test system: hairless guinea pigs
Test: Skin irritation after electrotransport administration
Type: in vivo
Description: Nesiritide was administered to hairless guinea pigs, and the guinea pigs were monitored for skin irritation.

Q: `CC[C@H](C)[C@@H]1NC(=O)[C@H](CCCNC(=N)N)NC(=O)[C@H](CC(=O)O)NC(=O)[C@H](CCSC)NC(=O)[C@H](CCCCN)NC(=O)[C@H](CCCNC(=N)N)NC(=O)CNC(=O)[C@H](Cc2ccccc2)NC(=O)[C@@H](NC(=O)CNC(=O)[C@H](CO)NC(=O)CNC(=O)[C@H](CCC(N)=O)NC(=O)[C@@H](NC(=O)[C@H](CCSC)NC(=O)[C@H](CCCCN)NC(=O)[C@@H]2CCCN2C(=O)[C@@H](N)CO)C(C)C)CSSC[C@@H](C(=O)N[C@@H](CCCCN)C(=O)N[C@H](C(=O)N[C@@H](CC(C)C)C(=O)N[C@@H](CCCNC(=N)N)C(=O)N[C@@H](CCCNC(=N)N)C(=O)N[C@@H](Cc2c[nH]cn2)C(=O)O)C(C)C)NC(=O)CNC(=O)[C@H](CC(C)C)NC(=O)CNC(=O)[C@H](CO)NC(=O)[C@H](CO)NC(=O)[C@H](CO)NC(=O)[C@H](CO)NC1=O` [Nesiritide, nesiritide] was tested. Which skin irritation (0.1 mA/cm^2) did it give?
A: Its skin irritation is “mild”.

Q: And the skin irritation (0.2 mA/cm^2)?
A: Its skin irritation is “mild”.
